Results published in US20050267357A1, “fMRI system for detecting symptoms associated with Attention Deficit Hyperactivity Disorder” (priority 2003, published 2005).

System: left insula/frontal operculum of ADHD and control groups
Experiment: fMRI during N-Back working memory and sustained attention task, on and off medication
Assay type: in vivo
Details: 1-B, 2-B and 3-B N-Back conditions, 0.2 mg/kg and 0.4 mg/kg MP compared with placebo
Text: A General Electric Signa EXCITE 3.0 Tesla MRI scanner is used for implementing the present invention although any of a number of commercial MRI scanners having 3.0 or 1.5 Tesla fields could be used. Typical imaging parameters involve, for example, the acquisition of 36 contiguous axial slices that cover the entire brain (typically 4 mm thick) using a blipped gradient-echo, echoplanar pulse sequence (echo time (TE)=25 msec; interscan period (TR)=[…]; field of view (FOV)=24 cm; 64×64 voxel matrix; 3.75 mm.×3.75 mm in-plane resolution). High resolution (124 axial slices) spoiled GRASS (gradient-recalled at steady-state) anatomic images [TE=3.9 ms; TR (repetition time)=9.5 ms, 120 flip angle, NEX (number of excitations)=1, slice thickness=1.0 mm, FOV=24 cm, matrix size=256×224] are acquired prior to functional imaging for anatomical localization of functional activation and co-registration. Stimulus presentation and general communication to the patient in the MR scanner is accomplished with stereo audio headphones and computer generated images fed into a digital LCD projector which are back projected to the subject and viewed by the patient through prismatic glasses. Subject responses are recorded on a small hand held keyboard or response device including multiple response buttons. […]

With `COC(=O)C(c1ccccc1)C1CCCCN1` (stereo not shown) [MP, Methylphenidate] the “Group differences (ADHD vs control) in brain activation (percent MR signal intensity)” value was “tended to disappear”.
